How the values were obtained:
[1] = system: BaF3.EpoR cells expressing JAK2V617F with G935R mutation; assay: Cell growth in response to JAK2 inhibitors, G935R mutant; type: cell-based, murine
[2] = system: BaF3.EpoR cells expressing JAK2V617F with Y931C mutation; assay: Cell growth in response to JAK2 inhibitors, Y931C mutant; type: cell-based, murine
[3] = system: BaF3.EpoR cells expressing JAK2V617F with Y931C, G935R, R938L, 1960V or E985K mutation; assay: Cell growth in response to JAK2 inhibitors, all five resistance mutants (stated together); type: cell-based, murine; settings: summary statement
Method: Cell growth in response to various drug concentrations was measured by trypan blue (Sigma) exclusion or with the CellTiter 96® AQueous One Solution Cell Proliferation Assay reagent (Promega, Madison, Wis.).
BaF3.EpoR cell lines expressing potential drug resistant mutant JAK2V617F were generated by retroviral infection, as described previously. […] Polyclonal populations of these cells were used to determine changes in growth in response to various JAK2 inhibitors.

JAK2 = JAK2 (Homo sapiens, UniProt O60674); settings: cited from earlier work
Sequence of JAK2 (O60674 whole entry, species assumed): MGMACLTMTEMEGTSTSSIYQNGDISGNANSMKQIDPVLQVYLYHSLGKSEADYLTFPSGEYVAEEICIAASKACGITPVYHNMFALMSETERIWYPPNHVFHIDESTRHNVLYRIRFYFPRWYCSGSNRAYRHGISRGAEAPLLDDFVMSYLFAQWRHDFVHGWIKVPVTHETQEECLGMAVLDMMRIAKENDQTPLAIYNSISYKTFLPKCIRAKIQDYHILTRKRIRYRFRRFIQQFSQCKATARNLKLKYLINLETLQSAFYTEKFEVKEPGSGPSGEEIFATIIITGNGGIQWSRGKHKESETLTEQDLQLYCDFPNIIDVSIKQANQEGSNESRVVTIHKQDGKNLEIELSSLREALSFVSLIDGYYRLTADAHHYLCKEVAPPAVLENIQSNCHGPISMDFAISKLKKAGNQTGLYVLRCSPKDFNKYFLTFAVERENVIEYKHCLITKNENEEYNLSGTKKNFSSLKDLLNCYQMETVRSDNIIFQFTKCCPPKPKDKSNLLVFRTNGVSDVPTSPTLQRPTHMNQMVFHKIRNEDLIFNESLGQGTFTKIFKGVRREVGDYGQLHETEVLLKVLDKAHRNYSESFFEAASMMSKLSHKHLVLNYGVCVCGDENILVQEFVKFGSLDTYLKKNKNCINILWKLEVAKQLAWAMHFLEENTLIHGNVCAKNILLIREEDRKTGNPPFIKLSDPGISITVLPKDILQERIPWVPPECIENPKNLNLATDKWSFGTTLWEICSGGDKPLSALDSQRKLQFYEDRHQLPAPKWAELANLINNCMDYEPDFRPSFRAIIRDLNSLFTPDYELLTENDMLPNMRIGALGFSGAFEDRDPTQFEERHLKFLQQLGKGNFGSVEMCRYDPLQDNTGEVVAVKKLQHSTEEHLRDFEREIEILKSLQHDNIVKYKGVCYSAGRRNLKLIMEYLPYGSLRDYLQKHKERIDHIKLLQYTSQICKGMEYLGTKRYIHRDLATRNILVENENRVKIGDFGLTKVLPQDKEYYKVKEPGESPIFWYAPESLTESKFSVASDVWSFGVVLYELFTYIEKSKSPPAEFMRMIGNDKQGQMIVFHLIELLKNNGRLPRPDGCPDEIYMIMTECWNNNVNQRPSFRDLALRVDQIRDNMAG

SMILES: Cc1cc(Nc2nc(N[C@@H](C)c3ncc(F)cn3)ncc2Cl)n[nH]1 [AZD1480]
- increase in EC50 compared to native JAK2V617F [1]: > 7 fold
- EC50 ([1]; Mus musculus): > 10 µM
- increase in EC50 compared to native JAK2V617F [2]: > 7 fold
- EC50 ([2]; Mus musculus): > 10 µM
- resistance conferred by the mutations (in words) [3]: cross-resistance

SMILES: N#CCNC(=O)c1ccc(-c2ccnc(Nc3ccc(N4CCOCC4)cc3)n2)cc1 [CYT-387]
- resistance conferred by the mutations (in words) [3]: cross-resistance

SMILES: C[C@H](Nc1cc(-c2cnn(C)c2)cc(Nc2cnccn2)n1)c1ccc(F)cc1 [NS018]
- IC50 (JAK2): < 0.001 µM
- selectivity for JAK2 over other JAK-family kinases (JAK2): 30-50 fold

SMILES: Cc1cnc(Nc2ccc(OCCN3CCCC3)cc2)nc1Nc1cccc(S(=O)(=O)NC(C)(C)C)c1 [TG101348]
- resistance conferred by the mutations (in words) [3]: cross-resistance
